Measurements taken from publication PMC11589570, “Critical assessment of LC3/GABARAP ligands used for degrader development and ligandability of LC3/GABARAP binding pockets” (Nature Communications, 2024).
Values joined by “and” are separate entries in the source; they are usually repeats but may differ in a detail not shown here. Equal entries are not always repeated.

How the values were obtained:
[1] = target: GABARAPL2 (Homo sapiens, UniProt P60520); assay: FP assay with Cy5-labelled p62 LIR tracer (protein titration and tracer displacement); settings: replicates, listed as TH152
Chain of GABARAPL2 (P60520 whole entry): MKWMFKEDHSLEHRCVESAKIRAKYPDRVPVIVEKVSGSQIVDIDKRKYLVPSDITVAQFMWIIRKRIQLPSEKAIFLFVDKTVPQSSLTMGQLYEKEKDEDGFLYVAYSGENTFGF

[2] = target: LC3A (Homo sapiens, UniProt Q9H492); assay: Isothermal titration calorimetry (ITC); assay type: binding; settings: LC3A; read-out: KD (ITC)
Source text: To minimize nonspecific dilution heat effects, DMSO concentrations in the protein and compound samples were matched. […] For this protocol, the chamber was pre-equilibrated with the protein, and the test compounds were titrated while continuously measuring the rate of exothermic heat evolution. The heat of binding was integrated, corrected, and fitted to an independent single-binding site model based on the manufacturer’s instructions, from which thermodynamic parameters (ΔH and TΔS), equilibrium association and dissociation constants (KA and KD, respectively), and stoichiometry (n) were calculated using TA Instruments NanoAnalyze software.

[3] = target: LC3C (Homo sapiens, UniProt Q9BXW4); assay: FP assay with Cy5-labelled p62 LIR tracer (protein titration and tracer displacement); assay type: binding; settings: replicates, listed as TH152
Chain of LC3C (Q9BXW4 1-126): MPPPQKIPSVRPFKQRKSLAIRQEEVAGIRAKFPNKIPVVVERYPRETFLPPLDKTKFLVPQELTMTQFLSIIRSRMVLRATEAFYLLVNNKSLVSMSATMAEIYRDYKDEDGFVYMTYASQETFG

[4] = target: GABARAPL1 (Homo sapiens, UniProt Q9H0R8); assay: as above; assay type: binding; settings: replicates, listed as TH152
Chain of GABARAPL1 (Q9H0R8 whole entry): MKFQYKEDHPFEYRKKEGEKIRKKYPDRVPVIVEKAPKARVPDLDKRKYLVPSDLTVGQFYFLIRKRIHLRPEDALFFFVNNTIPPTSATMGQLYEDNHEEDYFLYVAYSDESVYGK

[5] = target: GABARAP (Homo sapiens, UniProt O95166); assay: as above; assay type: binding; settings: replicates, listed as TH152
Chain of GABARAP (O95166 1-116): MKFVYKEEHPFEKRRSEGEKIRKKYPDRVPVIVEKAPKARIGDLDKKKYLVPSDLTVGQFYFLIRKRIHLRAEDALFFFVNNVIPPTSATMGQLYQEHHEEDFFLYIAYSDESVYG

CCCCCCC(Sc1nc(Cl)cc(Nc2nc(-c3ccc(C(=O)O)cc3)cs2)n1)C(=O)O (stereo not drawn) [compound 21]
FP assay result (normalised FP signal) ([1]; log10 concentration [M] -3.5): 15.4589 and 21.9002 and 32.8502 and 25.1208 | FP assay result (normalised FP signal) ([1]; log10 concentration [M] -4): 44.4444 and 43.8003 and 53.7842 and 57.0048 | FP assay result (normalised FP signal) ([1]; log10 concentration [M] -4.5): 73.752 and 73.1079 and 75.0403 and 77.2947 | FP assay result (normalised FP signal) ([1]; log10 concentration [M] -5): 94.686 and 90.8213 and 95.0081 and 104.992 | FP assay result (normalised FP signal) ([1]; log10 concentration [M] -5.5): 97.2625 and 94.0419 and 105.958 and 102.093 | FP assay result (normalised FP signal) ([1]; log10 concentration [M] -6): 96.2963 and 93.0757 and 104.026 and 99.5169 | FP assay result (normalised FP signal) ([1]; log10 concentration [M] -6.5): 86.9565 and 89.8551 and 99.1948 and 93.0757 | FP assay result (normalised FP signal) ([1]; log10 concentration [M] -7): 90.4992 and 100.483 and 104.992 and 96.9404 | FP assay result (normalised FP signal) ([1]; log10 concentration [M] -7.5): 99.839 and 95.9742 and 100.161 and 104.026 | FP assay result (normalised FP signal) ([1]; log10 concentration [M] -8): 94.686 and 94.3639 and 101.127 and 98.5507 | FP assay result (normalised FP signal) ([1]; log10 concentration [M] -8.5): 91.4654 and 99.5169 and 96.2963 and 101.127 | Kd [2]: 2 µM | FP assay result (normalised FP signal) ([3]; log10 concentration [M] -3.5): 19.6537 and 17.9691 and 15.5358 and 11.7922 | FP assay result (normalised FP signal) ([3]; log10 concentration [M] -4): 50.5381 and 45.8587 and 48.6664 and 46.0459 | FP assay result (normalised FP signal) ([3]; log10 concentration [M] -4.5): 71.5021 and 72.0636 and 76.3687 and 74.6841 | FP assay result (normalised FP signal) ([3]; log10 concentration [M] -5): 93.0276 and 94.7122 and 94.8994 and 95.6481 | FP assay result (normalised FP signal) ([3]; log10 concentration [M] -5.5): 93.7763 and 94.3379 and 97.5199 and 95.8353 | FP assay result (normalised FP signal) ([3]; log10 concentration [M] -6): 96.0225 and 101.076 and 101.638 and 98.4558 | FP assay result (normalised FP signal) ([3]; log10 concentration [M] -6.5): 90.0328 and 92.0917 and 90.5943 and 93.2148 | FP assay result (normalised FP signal) ([3]; log10 concentration [M] -7): 99.2045 and 96.9584 and 97.5199 and 97.8942 | FP assay result (normalised FP signal) ([3]; log10 concentration [M] -7.5): 99.9532 and 98.8301 and 99.3917 and 101.825 | FP assay result (normalised FP signal) ([3]; log10 concentration [M] -8): 96.2096 and 99.0173 and 101.263 and 99.2045 | FP assay result (normalised FP signal) ([3]; log10 concentration [M] -8.5): 94.3379 and 96.2096 and 95.0866 and 96.0225 | FP assay result (normalised FP signal) ([4]; log10 concentration [M] -3.5): 12.2578 and 12.5396 and 10.1444 and 7.186 | FP assay result (normalised FP signal) ([4]; log10 concentration [M] -4): 30.4333 and 31.4195 and 29.5879 and 26.0655 | FP assay result (normalised FP signal) ([4]; log10 concentration [M] -4.5): 65.2342 and 56.9215 and 57.9077 and 55.9352 | FP assay result (normalised FP signal) ([4]; log10 concentration [M] -5): 92.9905 and 91.2998 and 95.2448 and 93.4132 | FP assay result (normalised FP signal) ([4]; log10 concentration [M] -5.5): 96.2311 and 98.3445 and 98.9081 and 98.7672 | FP assay result (normalised FP signal) ([4]; log10 concentration [M] -6): 98.6263 and 98.7672 (2×) and 99.1899 | FP assay result (normalised FP signal) ([4]; log10 concentration [M] -6.5): 96.2311 and 93.5541 and 95.6675 and 93.2723 | FP assay result (normalised FP signal) ([4]; log10 concentration [M] -7): 99.049 and 98.3445 and 97.64 and 97.4991 | FP assay result (normalised FP signal) ([4]; log10 concentration [M] -7.5): 101.021 and 101.867 and 99.049 and 98.0627 | FP assay result (normalised FP signal) ([4]; log10 concentration [M] -8): 97.0764 and 96.0902 (2×) and 101.162 | FP assay result (normalised FP signal) ([4]; log10 concentration [M] -8.5): 95.6675 and 98.9081 and 96.9355 and 97.3582 | FP assay result (normalised FP signal) ([5]; log10 concentration [M] -3.5): 6.476 and 7.14 and 8.634 and 10.7929 | FP assay result (normalised FP signal) ([5]; log10 concentration [M] -4): 22.9141 and 19.9253 and 28.8917 and 24.7406 | FP assay result (normalised FP signal) ([5]; log10 concentration [M] -4.5): 50.1453 and 47.6546 and 52.4699 and 48.8169 | FP assay result (normalised FP signal) ([5]; log10 concentration [M] -5): 88.9996 and 85.5127 and 92.3205 and 91.9884 | FP assay result (normalised FP signal) ([5]; log10 concentration [M] -5.5): 94.6451 and 91.9884 and 100.623 and 97.7999 | FP assay result (normalised FP signal) ([5]; log10 concentration [M] -6): 98.298 and 99.6264 and 101.287 and 99.7924 | FP assay result (normalised FP signal) ([5]; log10 concentration [M] -6.5): 94.479 and 92.8186 and 96.6376 and 97.7999 | FP assay result (normalised FP signal) ([5]; log10 concentration [M] -7): 96.3055 and 97.7999 and 100.955 and 96.9697 | FP assay result (normalised FP signal) ([5]; log10 concentration [M] -7.5): 97.3018 (2×) and 101.453 and 101.785 | FP assay result (normalised FP signal) ([5]; log10 concentration [M] -8): 99.9585 and 97.966 and 101.619 and 100.457 | FP assay result (normalised FP signal) ([5]; log10 concentration [M] -8.5): 96.1395 and 97.7999 and 97.966 and 99.2943
